Measured values as given in article PMC12305662, “Fragment-Based Development of Small Molecule Inhibitors Targeting Mycobacterium tuberculosis Cholesterol Metabolism” (Journal of Medicinal Chemistry, 2025).
Converted amounts (≈) assume the structure as drawn. “And” between values parts separate entries of the source, which are not always exact repeats. Identical values can stand only once. Like-named read-outs stand apart in the source and are kept apart here.

Experiments:
[1] = test system: uninfected THP-1 macrophages; test: THP-1 cytotoxicity (ATPLite); settings: uninfected THP-1 macrophages; ATP-dependent luminescence; 5 days; top concentration 50 μM
Mtb (Erdman) = test: Extracellular Mtb (Erdman) growth on cholesterol-supplemented (0.01%) media, MABA; assay type: cell-based, Mycobacterium tuberculosis; settings: MABA 1 week post-compound treatment, mean ± SD n = 3, read-out: mixed media IC50 (Erdman)
CYP125 [2] = biological target: T1, CYP125 (Mycobacterium tuberculosis, UniProt P9WPP1); test: biochemical; assay type: binding; settings: read-out: KD (μM) CYP125
Mtb CDC1551 [3] = test: Extracellular Mtb growth on cholesterol, MABA MIC99; assay type: cell-based, Mycobacterium tuberculosis; settings: Mycobacterium tuberculosis, CDC1551, 336 h, read-out: MABA-MIC99 (W2) CDC1551, cholesterol
CYP125 [4] = biological target: T1, CYP125; test: LC-MS substrate turnover assay (cholest-4-en-3-one); assay type: biochemical; settings: for IC50: CYP125 0.5 μM, cholest-4-en-3-one 5 µM, LC-MS, read-out: CYP125A1 IC50; for Ki: estimated by Cheng-Prusoff, cholest-4-en-3-one Km CYP125 = 2.1 µM, read-out: CYP125A1 KI
Mtb H37Rv [5] = test: Depletion of intracellular ATP (BacTiter Glo), Mtb on cholesterol; assay type: cell-based, Mycobacterium tuberculosis; settings: Mycobacterium tuberculosis, H37RV, cholesterol as sole carbon source
Mtb CDC1551 [6] = test: Depletion of intracellular ATP, Mtb on glucose; settings: glucose as sole carbon source
Method: (§4) (Mtb) H37Rv or CDC1551 strains were grown in Middlebrook 7H9 broth medium (Difco) supplemented with 0.3 g/L casitone, 0.81 g/L NaCl, 0.05% (v/v) tyloxapol, and either 97 mg/L cholesterol, 4 g/L glucose, or 0.2% glycerol. For inhibitor assays, a 10-fold serial dilution of the test compounds was made in the desired medium in duplicate rows of a 96-well plate. Mtb cells were then added to all the wells at the final concentration of 1 × 10^4 CFU, and plates were incubated at 37 °C for up to 15 days. Minimum inhibitory concentrations (MIC99) were determined using the Microplate Alamar Blue Assay (MABA) on day 15.
(§5) BacTiter Glo reagent (Promega) was added to microtiter plates (1:10 dilution) and luminescence was recorded after 15 min of incubation at room temperature. […] Isoniazid or p-amino salicylic acid were used as positive control compounds for all experiments. Reported MIC and IC50 values are the mean of duplicate treatments.

Mtb CDC1551 [7] = test: Depletion of intracellular ATP (BacTiter Glo), Mtb on cholesterol; assay type: cell-based; settings: Mycobacterium tuberculosis, cholesterol as sole carbon source
CYP1A = biological target: T2, CYP1A (Homo sapiens, UniProt P05177); test: Inhibition of human liver microsomal P450s; assay type: in vitro ADME
T2 construct: from tissue; host or cells: human liver microsomes
T2 sequence (P05177 2-516 limits assumed): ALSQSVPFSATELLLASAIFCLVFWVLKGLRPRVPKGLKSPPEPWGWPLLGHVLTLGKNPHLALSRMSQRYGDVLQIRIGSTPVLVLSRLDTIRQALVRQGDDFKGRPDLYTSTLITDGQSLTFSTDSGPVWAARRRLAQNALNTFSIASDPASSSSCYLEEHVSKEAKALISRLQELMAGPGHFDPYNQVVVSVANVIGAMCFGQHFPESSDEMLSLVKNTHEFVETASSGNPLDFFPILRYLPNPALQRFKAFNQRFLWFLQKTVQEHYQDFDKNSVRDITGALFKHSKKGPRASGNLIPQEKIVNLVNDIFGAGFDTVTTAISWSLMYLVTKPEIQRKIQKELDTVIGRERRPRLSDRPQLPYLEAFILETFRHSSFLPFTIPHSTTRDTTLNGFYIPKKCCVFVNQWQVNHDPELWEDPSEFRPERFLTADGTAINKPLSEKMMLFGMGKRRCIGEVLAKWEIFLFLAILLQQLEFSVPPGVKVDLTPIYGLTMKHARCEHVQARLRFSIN
Source text: (§1) Table S8. Inhibition of human liver microsomal P450s. Inhibition constants (IC 50 values, µM) of
(§2) following substrates: CYP1A-ethoxyresorufin, CYP2C19- mephenytoin, CYP2C9-tolbutamide, CYP2D6-
(§3) dextromethorphan, CYP3A4-midazolam/testosterone.

CYP2D6 = biological target: T3, CYP2D6 (Homo sapiens, UniProt P10635); test: Inhibition of human liver microsomal P450s; assay type: in vitro ADME
T3 construct: from tissue; host or cells: human liver microsomes
Source text: as §1, §2, §3

CYP2C9 = biological target: T4, CYP2C9 (Homo sapiens, UniProt P11712); test: Inhibition of human liver microsomal P450s; assay type: in vitro ADME
T4 construct: from tissue; host or cells: human liver microsomes
Source text: as §1, §2, §3

CYP2C19 = biological target: T5, CYP2C19 (Homo sapiens, UniProt P33261); test: Inhibition of human liver microsomal P450s; assay type: in vitro ADME
T5 construct: from tissue; host or cells: human liver microsomes
Source text: as §1, §2, §3

CYP3A4 = biological target: T6, CYP3A4 (Homo sapiens, UniProt P08684); test: Inhibition of human liver microsomal P450s; assay type: in vitro ADME
T6 construct: from tissue; host or cells: human liver microsomes
Source text: as §1, §2, §3

[8] = test system: Mtb H37Rv pATB45luc in THP-1 macrophages; test: microbe, parasite or virus in culture; assay type: cell-based; settings: Mycobacterium tuberculosis, 120 h, 5 days post-compound treatment, mean ± SD n = 2, read-out: intracellular growth Mtb IC50
Mtb H37Rv [9] = test: Extracellular Mtb growth on cholesterol, MABA MIC99; assay type: cell-based, Mycobacterium tuberculosis; settings: read-out: MABA-MIC99 (W2) H37Rv, cholesterol
Mtb H37Rv [10] = test system: Mtb H37Rv
Method: as §4, §5

[11] = test system: MDR-TB strain K26b00MR 113; test: microbe, parasite or virus in culture; assay type: cell-based, Mycobacterium tuberculosis; settings: for MIC90: Mycobacterium tuberculosis
H37Rv Mtb = test: Extracellular Mtb growth, MABA MIC90 (drug susceptible strain); assay type: cell-based; settings: Mycobacterium tuberculosis
CYP125 [12] = biological target: T1, CYP125; assay type: binding; settings: compound 100 µM, P450 5 µM; high spin population; '-' = no HS maxima present
CYP142 [13] = biological target: T7, CYP142 (Mycobacterium tuberculosis, UniProt P9WPL5)
CYP142 [14] = biological target: T7, CYP142; settings: compound 100 µM, P450 5 µM
[15] = 336 h, 2 weeks post-compound treatment, read-out: ATP-IC50 (W2) H37Rv, cholesterol
[16] = read-out: ATP IC50 (W1) CDC1551, glucose media, 1 week
[17] = CDC1551, 168 h, 1 week post-compound treatment, read-out: ATP-IC50 (W1) CDC1551, cholesterol
[18] = CDC1551, 336 h, 2 weeks post-compound treatment, read-out: ATP-IC50 (W2) CDC1551, cholesterol
[19] = Mycobacterium tuberculosis, H37RV, 336 h, cholesterol as sole carbon source, 2 weeks post-compound treatment
[20] = 168 h, 1 week post-compound treatment, read-out: ATP-IC50 (W1) H37Rv, cholesterol

T1 sequence (P9WPP1 whole entry): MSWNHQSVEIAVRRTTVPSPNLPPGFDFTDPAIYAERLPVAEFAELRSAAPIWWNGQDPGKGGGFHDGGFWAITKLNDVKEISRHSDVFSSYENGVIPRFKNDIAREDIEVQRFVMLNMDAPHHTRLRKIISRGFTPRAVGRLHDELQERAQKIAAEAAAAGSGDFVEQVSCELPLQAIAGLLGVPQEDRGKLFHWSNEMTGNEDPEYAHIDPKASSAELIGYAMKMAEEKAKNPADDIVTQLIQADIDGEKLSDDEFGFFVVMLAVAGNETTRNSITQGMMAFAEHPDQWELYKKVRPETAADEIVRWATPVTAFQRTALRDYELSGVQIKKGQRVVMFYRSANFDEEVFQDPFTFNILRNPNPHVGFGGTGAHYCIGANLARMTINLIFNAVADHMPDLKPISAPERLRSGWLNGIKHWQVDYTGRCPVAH
T6 sequence (P08684 whole entry): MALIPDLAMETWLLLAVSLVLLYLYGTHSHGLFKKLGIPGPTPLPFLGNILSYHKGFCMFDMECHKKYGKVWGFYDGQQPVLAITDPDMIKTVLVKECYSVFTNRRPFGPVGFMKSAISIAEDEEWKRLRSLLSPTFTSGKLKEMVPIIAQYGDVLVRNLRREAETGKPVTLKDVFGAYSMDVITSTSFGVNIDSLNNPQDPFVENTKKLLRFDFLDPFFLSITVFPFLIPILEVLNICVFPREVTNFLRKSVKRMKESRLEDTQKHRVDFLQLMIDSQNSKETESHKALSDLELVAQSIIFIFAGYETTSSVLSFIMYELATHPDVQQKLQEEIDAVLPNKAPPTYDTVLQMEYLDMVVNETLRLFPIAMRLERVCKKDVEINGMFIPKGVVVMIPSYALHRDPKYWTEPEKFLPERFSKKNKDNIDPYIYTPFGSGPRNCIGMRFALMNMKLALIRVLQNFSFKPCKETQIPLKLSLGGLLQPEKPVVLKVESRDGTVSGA
T7 sequence (P9WPL5 whole entry): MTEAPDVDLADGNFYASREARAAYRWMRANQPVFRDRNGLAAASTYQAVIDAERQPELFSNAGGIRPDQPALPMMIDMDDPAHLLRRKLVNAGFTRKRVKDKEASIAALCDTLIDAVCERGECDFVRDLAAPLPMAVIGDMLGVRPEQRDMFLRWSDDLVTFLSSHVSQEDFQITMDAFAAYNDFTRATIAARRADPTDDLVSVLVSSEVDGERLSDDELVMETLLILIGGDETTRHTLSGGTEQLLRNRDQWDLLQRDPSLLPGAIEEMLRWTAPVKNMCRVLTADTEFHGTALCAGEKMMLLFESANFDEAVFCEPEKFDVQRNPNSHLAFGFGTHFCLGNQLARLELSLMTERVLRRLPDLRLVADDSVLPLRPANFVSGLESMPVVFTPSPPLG
T4 sequence (P11712 whole entry): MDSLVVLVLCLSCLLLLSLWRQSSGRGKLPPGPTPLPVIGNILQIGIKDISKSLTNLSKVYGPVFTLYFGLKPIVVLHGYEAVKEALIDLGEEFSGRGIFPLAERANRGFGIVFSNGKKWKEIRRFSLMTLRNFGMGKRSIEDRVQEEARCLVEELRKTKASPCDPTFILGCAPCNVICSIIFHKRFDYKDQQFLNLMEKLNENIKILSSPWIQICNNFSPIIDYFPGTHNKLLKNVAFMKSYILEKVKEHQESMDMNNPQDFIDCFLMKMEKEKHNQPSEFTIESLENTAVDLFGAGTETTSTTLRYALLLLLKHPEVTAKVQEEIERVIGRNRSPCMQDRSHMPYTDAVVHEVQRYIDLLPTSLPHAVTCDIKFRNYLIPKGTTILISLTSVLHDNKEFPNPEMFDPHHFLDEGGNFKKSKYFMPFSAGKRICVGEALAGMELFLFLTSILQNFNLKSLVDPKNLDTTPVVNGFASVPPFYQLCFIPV
T5 sequence (P33261 whole entry): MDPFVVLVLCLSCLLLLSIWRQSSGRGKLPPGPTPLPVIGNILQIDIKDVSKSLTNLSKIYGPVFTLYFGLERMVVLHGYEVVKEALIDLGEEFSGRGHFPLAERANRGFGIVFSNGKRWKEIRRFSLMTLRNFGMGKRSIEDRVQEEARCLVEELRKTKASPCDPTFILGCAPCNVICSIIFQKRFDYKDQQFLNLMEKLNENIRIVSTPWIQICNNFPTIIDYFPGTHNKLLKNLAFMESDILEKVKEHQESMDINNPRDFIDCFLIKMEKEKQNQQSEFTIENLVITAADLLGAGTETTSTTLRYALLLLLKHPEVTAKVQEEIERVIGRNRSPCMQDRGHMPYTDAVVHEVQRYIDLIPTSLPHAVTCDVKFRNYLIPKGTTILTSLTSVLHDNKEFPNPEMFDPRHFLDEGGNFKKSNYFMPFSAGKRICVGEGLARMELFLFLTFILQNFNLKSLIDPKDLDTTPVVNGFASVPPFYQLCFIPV
T3 sequence (P10635 whole entry): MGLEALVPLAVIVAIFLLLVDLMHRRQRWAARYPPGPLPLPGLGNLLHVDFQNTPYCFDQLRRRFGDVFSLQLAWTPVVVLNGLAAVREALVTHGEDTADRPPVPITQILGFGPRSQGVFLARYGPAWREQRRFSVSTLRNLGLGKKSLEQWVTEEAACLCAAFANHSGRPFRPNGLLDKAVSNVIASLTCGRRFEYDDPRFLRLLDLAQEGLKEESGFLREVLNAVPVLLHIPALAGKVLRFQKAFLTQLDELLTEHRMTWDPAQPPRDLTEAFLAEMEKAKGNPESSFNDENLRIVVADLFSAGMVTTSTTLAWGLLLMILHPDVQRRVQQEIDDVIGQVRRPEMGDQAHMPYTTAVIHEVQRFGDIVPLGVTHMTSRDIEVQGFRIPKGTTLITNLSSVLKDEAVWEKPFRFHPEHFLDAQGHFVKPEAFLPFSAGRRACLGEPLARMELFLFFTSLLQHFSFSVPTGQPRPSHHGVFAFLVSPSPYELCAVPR

| Compound | Kd (CYP125 [2]) | IC50 (CYP125 [4]) | Ki (CYP125 [4]) | IC50 (Mtb H37Rv [5]; [15]) | IC50 (Mtb CDC1551 [6]; [16]) | IC50 (Mtb CDC1551 [7]; [17]) | IC50 (Mtb CDC1551 [7]; [18]) | IC50 [8] | MIC99 (Mtb H37Rv [9]; [19]) | IC50 (Mtb H37Rv [10]) | IC50 (Mtb H37Rv [5]; [20]) | also measured |
| --- | --- | --- | --- | --- | --- | --- | --- | --- | --- | --- | --- | --- |
| O=S(=O)(Nc1ccc(Cc2ccncc2)cc1)c1ccc(OC(F)(F)F)cc1 [5k, N-(4-(Pyridin-4-ylmethyl)phenyl)-4-(trifluoromethoxy)benzenesulfonamide] | 0.55 ± 0.12 µM | 910 ± 220 nM | 270 nM | 2300 nM | 19000 nM | 1200 nM | 9400 nM | 13000 ± 180 nM | 25 µM (≈ 10.2 µg/mL) |  |  | THP-1 LD50 [1]: 32 µM; IC50 (Mtb (Erdman); Mycobacterium tuberculosis, ERDMAN, 168 h): 22000 ± 2000 nM; MIC99 (Mtb CDC1551 [3]; cholesterol as sole carbon source, 2 weeks post-compound treatment): 25 µM (≈ 10.2 µg/mL); IC50 (CYP1A): 5950 nM; IC50 (CYP2D6): 180 nM; IC50 (CYP2C9): 5270 nM; IC50 (CYP2C19): 3100 nM; IC50 (CYP3A4; CYP3A4 IC50 (midazolam), substrate midazolam (first value of cell)): 260 nM; IC50 (CYP3A4; CYP3A4 IC50 (testosterone), substrate testosterone (second value of cell)): 1250 nM |
| COc1ccc(C(C)Nc2ccc(Cc3ccncc3)cc2)cc1 (stereo not drawn) [5o, N-(1-(4-Methoxyphenyl)ethyl)-4-(pyridin-4-ylmethyl)aniline] | 0.8 ± 0.32 µM | 4200 ± 480 nM | 1200 nM | 590 nM |  |  |  |  | 19 µM (≈ 6.05 µg/mL) | 2300 nM | 150 nM |  |
| NNC(=O)c1ccncc1 [Isoniazid, isoniazid, reference compound] |  |  |  | < 100 nM |  |  |  | 100 ± 10 nM | < 0.1 µM |  | < 100 nM | MIC90 (W1) MDR-TB ([11]; MABA 1 week post-compound treatment, K26b00MR 113): 12.5 to 25 µM; fold higher value against MDR-TB than H37Rv ([11]; MABA, 1 and 2 weeks): 50–150 fold; MIC90 ([11]; 168 h, read-out: MIC90 (W1) MDR-TB, MABA 1 week post-compound treatment, K26b00MR 113): 13 to 25 µM (≈ 1.78 to 3.43 µg/mL); MIC90 ([11]; 336 h, read-out: MIC90 (W2) MDR-TB, MABA 2 weeks post-compound treatment, K26b00MR 113): 50 µM (≈ 6.86 µg/mL); MIC90 (H37Rv Mtb; 168 h, MABA 1 week post-compound treatment, glucose-casitone (standard) media, read-out: MIC90 (W1) H37Rv): 0.19 to 0.39 µM (≈ 0.0261 to 0.0535 µg/mL); MIC90 (H37Rv Mtb; 336 h, MABA 2 weeks post-compound treatment, read-out: MIC90 (W2) H37Rv): 0.39 µM (≈ 0.0535 µg/mL); MIC99 (Mtb H37Rv [9]; cholesterol as sole carbon source, 2 weeks post-compound treatment, listed as Inh.): <0.1 µM |
| COc1c(N2C[C@@H]3CCCN[C@@H]3C2)c(F)cc2c(=O)c(C(=O)O)cn(C3CC3)c12 [Moxifloxacin, moxifloxacin, reference compound] |  |  |  |  |  |  |  |  |  |  |  | IC50 (Mtb (Erdman)): 330 ± 10 nM |
| Nc1ccc(C(=O)O)c(O)c1 [p-aminosalicylic acid, reference compound] |  |  |  | 290 nM | < 40 nM | 40 nM | 2300 nM | 2400 ± 120 nM |  | < 40 nM and 70 nM | 40 nM | MIC99 (Mtb CDC1551 [3]): 0.39 µM (≈ 0.0597 µg/mL); IC50 (Mtb CDC1551 [6]; read-out: ATP IC50 (W2) CDC1551, glucose media, 2 weeks): 70 nM; MIC99 (Mtb H37Rv [9]; Mycobacterium tuberculosis, H37RV, 336 h): 0.19 µM (≈ 0.0291 µg/mL) |
| N-Phenylpyridin-4-amine [2a] | 35 ± 5.8 µM |  |  |  |  |  |  |  |  |  |  | CYP125 Δλmax (nm) HS (CYP125 [12]): 0 nm; Kd (CYP142 [13]): 1100 ± 200 nM; CYP142 Δλmax (nm) (CYP142 [14]): 4 nm |
